The record followed here is patent US20240300959A1, “BALASUBRAMIDE DERIVATIVE AND USE THEREOF IN PREPARATION OF MEDICINE FOR TREATING ACUTE LUNG INJURY” (Guangdong Pharmaceutical University, priority 2023, published 2024).

In series [1] the test system is TNF-α in RAW264.7 macrophages stimulated by lipopolysaccharide. Put plainly: TNF-α ELISA in cell supernatant of LPS-stimulated RAW264.7 macrophages. In kind it is cell-based, mice. The following applies: Mus musculus, RAW264.7, 2 h, 10 μM, 3 h pretreatment, LPS 100 ng/mL 2 h, RAW264.7; read-out: Percentage of TNF-α in a model group (%). How it is done: RAW264.7 cells were inoculated into a 96-well plate at a density of 1×10^5 per well. When the cell density was 70%-80%, 18 balasubramide derivatives were prepared into 10 mM working solutions with DMSO, respectively, and then used to pretreat mononuclear macrophages RAW264.7 of mice at a final concentration of 10 μM. After 3 h, lipopolysaccharide (LPS, 100 ng/mL) was added into all wells for action for 2 h except for a control group. A supernatant was collected for later use, and the expression level of an inflammatory factor TNF-α in the cell supernatant was detected according to an operation instruction of a commercial ELISA kit.
RAW264.7 cells were inoculated into a 96-well plate at a density of 1×10^5 per well. When the cell density was 70%-80%, the RAW264.7 cells were pretreated with (+)3C-20 ([…]). After 3 h, lipopolysaccharide (LPS, 100 ng/mL) was added into all wells for action for 2 h except for a control group. The expression level of an inflammatory factor TNF-α in a cell supernatant was detected according to an operation instruction of a commercial ELISA kit, and the cell viability at different administration concentrations of (+)3C-20 was determined according to an operation instruction of a CCK-8 kit.

The next series has as its system RAW264.7 cells. In words: Cytotoxicity test, CCK-8 cell viability of RAW264.7 cells (24 h). In kind it is cell-based, mice. The following applies: 10 μM, RAW264.7 cell viability. The method, then:
RAW264.7 cells were inoculated into a 96-well plate at a density of 1×10^5 per well. When the cell density was 70%-80%, the RAW264.7 cells were pretreated with 10 mM working solutions prepared from 18 balasubramide derivatives at a final concentration of 10 μM for 24 h, and then the cell viability was determined by a CCK-8 method.

Structures are written as SMILES.

`CCOc1ccc2[nH]c3c(c2c1)CCNC(=O)[C@@H](OC(=O)CCc1ccc(C(F)(F)F)cc1)[C@@H]3c1ccc(C(F)(F)F)cc1` [(+)-D7a]: the activity at 10 µM in series [1] came out at 97.7 ± 1.5%. Moreover, the “Percentage of CCK-8 in a model group (%)” value in the series with RAW264.7 cells amounted to 106.69 ± 1.21%.
For `Cc1cccc2c3c([nH]c12)[C@@H](c1ccc(C(F)(F)F)cc1)[C@H](OC(=O)CCc1ccc(C(F)(F)F)cc1)C(=O)NCC3` [(+)-B3g] the same measures were 78.5% and 101.49 ± 2.57%.
For `CCCn1c2c(c3ccccc31)CCNC(=O)[C@@H](OC(=O)CCc1ccc(C(F)(F)F)cc1)[C@@H]2c1ccc(C(F)(F)F)cc1` [(+)-c3] the same measures were 81.8 ± 1.11% and 110.41 ± 0.54%.
